Literature values in patent US20130316926A1, “METHOD FOR THE MONITORING OF SMOKING CESSATION COMPLIANCE AND RECOVERY, THERAPEUTIC INTERVENTION, AND RISK MANAGEMENT” (Health Diagnostic Laboratory, Inc., priority 2012, published 2013).
Read-outs that look alike come from different tables or passages of the source.

Experiments:
[1] = for t½: b55, cotinine value is an average
[2] = for urinary concentration: tobacco user, regardless of nicotine replacement therapy

| half-life ([1]; b40, Benowitz 1986) | Compound | half-life [1] [h] | Concentration of Urinary: Non-tobacco user with no passive exposure [2] [ng/mL] | Concentration of Urinary: Non-tobacco user with Passive exposure [2] [ng/mL] | Concentration of Urinary: Tobacco user after 2 weeks' abstinence [2] [ng/mL] | concentration in urine of tobacco users [2] | urinary concentration [2] [ng/mL] | t½ [1] [h] | time to reach the central nervous system ([1]; after tobacco smoke inhalation) [s] | fraction of circulating nicotine metabolized to cotinine ([1]; by cytochrome P450 and aldehyde oxidase) [%] | distribution half-life ([1]; in vivo) [min] | elimination half-life ([1]; in vivo) [h] | nicotine leaving the liver in metabolite forms ([1]; on average) [%] | nicotine that enters the liver and exits unchanged ([1]; on average) [%] |
| --- | --- | --- | --- | --- | --- | --- | --- | --- | --- | --- | --- | --- | --- | --- |
| – | CN1C(=O)[C@H](O)C[C@H]1c1cccnc1 (relative stereo) [trans-3-hydroxycotinine] | 10 | <50 | <50 | <120 | 3,000-25,000 ng/mL | – | – | – | – | – | – | – | – |
| – | c1cncc([C@@H]2CCCCN2)c1 [Anabasine] | – | <2.0 | <2.0 | <2.0 | – | > 10 | – | – | – | – | – | – | – |
| about 20 hrs | CN1C(=O)CC[C@H]1c1cccnc1 [Cotinine] | 15 | <5.0 | <20 | <50 | 1,000-8,000 ng/mL | – | 16 | – | – | – | – | – | – |
| – | CN1CCCC1c1cccnc1 (centres unmarked) [Nicotine] | 2 | <2.0 | <20 | <30 | 1,000-5,000 ng/mL | – | 2 | ≤ 20 | 70 | 8 | 2 | 70 | 30 |
| – | c1cncc([C@@H]2CCCN2)c1 [Nornicotine] | – | <2.0 | <2.0 | <2.0 | – | > 30 | – | – | – | – | – | – | – |
